{
  "source": "patent US4228162A",
  "about": "(priority 1979, dated 1980)",
  "key": {"[1]": {"experimental": "The samples were prepared using USP grade aspirin, which was dried at 110° before use. […] Spectrum b was taken after the sample (containing 10% water) was stored at 70° C. for 96 hours."}, "[2]": {"assay": "Solubility of aspirin in propylene glycol, polyethylene glycol-400 and dimethyl isosorbide", "type": "physicochemical", "details": "organic solvent or mixture", "experimental": "The bottle was constantly shaken at room temperature for 24 hours. The solution was then filtered for analysis. The determination of aspirin contents in the solubility samples was carried out using a fluorometric technique, in which the aspirin was completely hydrolyzed into salicylic acid, and the fluorescence of salicylic acid was then measured. The concentration of salicylic acid in the samples was determined based on a fluorescence calibration curve of known concentrations of salicylic acid in the range of 5×10^-7 M to 5×10^-6 M. The concentration of salicylic acid so determined was then converted to the concentration of aspirin. The solubility of aspirin in various solvents is expressed in mg/ml. The samples were treated as follows: […] After 30 minutes, when the hydrolysis was complete, 0.5 ml of a 1 N HCl was added to the flask to neutralize the excess sodium hydroxide. The solution was then diluted with a pH 7 phosphate buffer to 25 ml. For fluorescence measurement, 1, 2, 3, and 4 μl of the diluted solution were transferred into different fluorescence cuvettes containing 2 ml of pH 7 buffer. The fluorescence measured from these solutions was then used to determine the aspirin content in the solvents."}, "[3]": {"assay": "Hydrolysis (stability) studies of aspirin formulations in dimethyl isosorbide", "type": "physicochemical", "experimental": "No attempt of drying of the drug or the solvent was made prior to the experiment. 25 ml of each of the six formulations were placed in a screw capped bottle which was then kept in a temperature controlled water bath set at a designated temperature. Samples of each of the formulations were pipetted out at selected time intervals, and were immediately analyzed for salicylic acid content. The analysis of salicylic acid was carried out using the fluorometric method previously described. The samples were diluted 1000 times in a volumetric flask, a few μl's of the diluted samples were then transferred into a fluorescence cuvette containing 2 ml of pH 7 buffer for the fluorescence measurement. The hydrolysis studies were carried out at 40, 45, 50, 60 and 70° C. and at room temperature.\nThe rate constant of aspirin hydrolysis was determined according to the following equation: […]\nwhere Co is the initial concentration of aspirin, C, the concentration of aspirin at time t, and k, the rate constant. For practical purposes, the above equation may be converted to […]"}, "[4]": {"assay": "Arrhenius prediction of aspirin degradation and shelf life", "type": "physicochemical", "details": "1.00 M aspirin in dimethyl isosorbide", "experimental": "The rate constants determined at various temperatures were used to predict the aspirin degradation at room (25° C.) and refrigeration (5° C.) temperatures using the Arrhenius equation:\nlog k=log A-Ea /2.303RT (3)\nwhere k is the rate constant at temperature T,A, a constant, R, the gas constant, and Ea, the activation energy of the reaction. A plot of log k versus 1/T should yield a straight line with the slope equal to -Ea /2.303R. For the same reaction, Ea is a constant. From the plot, the rate constants at 25° and 5° can also be calculated. These constants can then be used for the prediction of the shelf life (time for 10% degradation) of the aspirin formulations at room and refrigeration temperatures.\nFrom these values, the shelf-life (time for 10% degradation) of formulation A were predicted to be 230 days at 25° C., and 62.5 months at 5° C."}, "[5]": {"type": "physicochemical", "details": "dimethyl isosorbide versus propylene glycol and polyethylene glycol-400", "from_the_text": "Ideally, an anhydrous composition is used to prevent hydrolysis."}, "[6]": {"details": "cited from earlier work"}, "gastrointestinal tract": {"test_system": "gastrointestinal tract", "details": "cited from earlier work"}, "[7]": {"details": "cited from earlier work", "remark": "listed apart in the source"}},
  "note": "Like-named read-outs stand apart in the source and are kept apart here.",
  "data": [
    {"smiles": "CC(=O)Oc1ccccc1C(=O)O", "note": "[Aspirin, acetylsalicylic acid]", "values": [
      {"measurement": "aspirin degradation by nmr", "setting": "[1]; 1 M aspirin in dimethyl isosorbide with 10% (v/v) water, 70° C., 96 hours", "value": "partially hydrolyzed into salicylic acid and acetic acid"},
      {"measurement": "nmr spectral change", "setting": "[1]; 1 M aspirin in dimethyl isosorbide, no water, heated at 70° for 24 hours", "value": "no detectable change was found in the nmr spectrum"},
      {"measurement": "solubility at 24 h", "setting": "[2]; dimethyl isosorbide", "value": 280, "unit": "mg/mL"},
      {"measurement": "solubility at 24 h", "setting": "[2]; in polyethylene glycol-400, room temperature, 24 hours", "value": 254, "unit": "mg/mL"},
      {"measurement": "solubility at 24 h", "setting": "[2]; in propylene glycol, room temperature, 24 hours", "value": 160, "unit": "mg/mL"},
      {"measurement": "cause of aspirin degradation (nmr)", "setting": "[3]", "value": "hydrolysis is the only cause for aspirin degradation in dimethyl isosorbide"},
      {"measurement": "kinetic order of aspirin hydrolysis", "setting": "[3]; 50° C., FIG. 3", "value": "follows second order kinetics"},
      {"measurement": "Time for 10% Degradation", "setting": "[4]; 5° C.", "value": 62.5, "unit": "mos."},
      {"measurement": "Time for 10% Degradation", "setting": "[4]; 25° C.", "value": 230, "unit": "days"},
      {"measurement": "aspirin stability compared between solvents", "setting": "[5]", "value": "more stable in dimethyl isosorbide than in the other solvents"},
      {"measurement": "Time for 10% Degradation", "setting": "[6]; 5° C., 0.36 M aspirin in polyethylene glycol-400", "value": 2.90, "unit": "mos."},
      {"measurement": "Time for 10% Degradation", "setting": "[6]; 5° C., 0.36 M aspirin in propylene glycol", "value": 55.8, "unit": "mos."},
      {"measurement": "Time for 10% Degradation", "setting": "[6]; 25° C., 0.36 M aspirin in polyethylene glycol-400", "value": 18.8, "unit": "days"},
      {"measurement": "Time for 10% Degradation", "setting": "[6]; 25° C., 0.36 M aspirin in propylene glycol", "value": 151.2, "unit": "days"},
      {"measurement": "gastrointestinal bleeding", "setting": "gastrointestinal tract; aspirin ingestion, users and patients with gastrointestinal lesions", "value": "severe gastrointestinal bleeding"},
      {"measurement": "occult bleeding", "setting": "gastrointestinal tract; orally in a liquid form or intravenously", "value": "produces no occult bleeding"},
      {"measurement": "mode of decomposition in polyhydric alcohols (nmr)", "setting": "[7]; apparently anhydrous polyhydric alcohols", "value": "occurs by transesterification of the acid with the polyhydric alcohol as well as by hydrolysis due to the presence of water"},
      {"measurement": "hydrolysis kinetics", "setting": "[7]; aqueous, Edward", "value": "follows first order kinetics and is subject to acid and base catalysis"},
      {"measurement": "trans-esterification", "setting": "[7]; polyethylene glycol-400, prolonged storage, Jun et al", "value": "undergoes trans-esterification with polyethylene glycol-400 to form salicylic acid and acetylated polyethylene glycol"}
    ]}
  ]
}
